From US20260355212A1 (priority 2022, published 2026)
Where two headings read alike, the source gives them in different places.

Legend:
SARS-CoV-2 Mpro = SARS-CoV-2 Mpro (Severe acute respiratory syndrome coronavirus 2, UniProt P0DTD1); test: SARS-CoV-2 Mpro enzymatic inhibition assay (fluorescence); type: biochemical
Procedure, shortened: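 A fluorescence readout (340 nm excitation, 490 nm emission) was taken after the substrate reaction ran 60 min at 30° C. Before substrate addition, E. coli-expressed protease and compound (3-fold dilutions, 10 doses, duplicates) sat together 30 min at room temperature. Percent inhibition was fitted by variable-slope nonlinear regression to give IC50.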

HCoV-229E Mpro = HCoV-229E Mpro (Human coronavirus 229E, UniProt P0C6X1); test: HCoV-229E Mpro enzymatic inhibition assay (fluorescence); type: biochemical
HCoV-229E Mpro, sequence (P0C6X1 2966-3267 limits assumed): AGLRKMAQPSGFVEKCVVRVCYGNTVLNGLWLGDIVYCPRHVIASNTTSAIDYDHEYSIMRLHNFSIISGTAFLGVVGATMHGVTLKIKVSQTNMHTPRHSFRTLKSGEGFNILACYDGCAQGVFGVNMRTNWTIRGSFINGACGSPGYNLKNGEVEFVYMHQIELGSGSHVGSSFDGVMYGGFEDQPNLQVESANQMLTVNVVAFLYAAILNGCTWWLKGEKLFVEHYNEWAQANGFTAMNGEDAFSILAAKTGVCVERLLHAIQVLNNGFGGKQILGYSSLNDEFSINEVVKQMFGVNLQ

HCoV-HKU1 Mpro = HCoV-HKU1 Mpro (Human coronavirus HKU1, UniProt P0C6X2); test: HCoV-HKU1 Mpro enzymatic inhibition assay (fluorescence); type: biochemical
HCoV-HKU1 Mpro, sequence (P0C6X2 3335-3637 limits assumed): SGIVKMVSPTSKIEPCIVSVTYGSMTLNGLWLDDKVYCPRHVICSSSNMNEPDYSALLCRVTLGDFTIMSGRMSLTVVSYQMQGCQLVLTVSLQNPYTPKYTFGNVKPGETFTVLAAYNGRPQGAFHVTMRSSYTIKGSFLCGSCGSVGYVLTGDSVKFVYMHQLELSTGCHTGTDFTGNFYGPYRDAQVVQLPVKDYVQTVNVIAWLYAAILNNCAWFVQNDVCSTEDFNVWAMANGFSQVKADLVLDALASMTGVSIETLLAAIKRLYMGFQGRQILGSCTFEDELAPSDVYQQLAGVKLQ
Procedure, shortened: (§1)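 Fluorescence at 340/490 nm after 60 min substrate cleavage at 30 °C is the read-out. Purified E. coli-expressed protease had been pre-incubated 30 min at room temperature with 10-dose, 3-fold compound series in duplicate.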

MERS Mpro = MERS Mpro (Middle East respiratory syndrome-related coronavirus, UniProt K9N7C7); test: biochemical; design: species or system MERS-CoV
MERS Mpro, sequence (K9N7C7 3248-3553 limits assumed): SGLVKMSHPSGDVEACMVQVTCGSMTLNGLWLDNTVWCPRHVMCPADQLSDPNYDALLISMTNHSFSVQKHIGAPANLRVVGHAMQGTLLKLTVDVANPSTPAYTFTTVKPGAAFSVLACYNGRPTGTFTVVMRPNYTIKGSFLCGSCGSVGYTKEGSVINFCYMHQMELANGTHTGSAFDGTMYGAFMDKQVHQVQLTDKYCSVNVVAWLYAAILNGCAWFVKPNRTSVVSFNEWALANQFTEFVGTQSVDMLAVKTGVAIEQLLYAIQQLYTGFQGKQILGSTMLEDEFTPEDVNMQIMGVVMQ

HCoV-NL63 Mpro = HCoV-NL63 Mpro (Human coronavirus NL63, UniProt P0C6X5); test: HCoV-NL63 Mpro enzymatic inhibition assay (fluorescence); type: biochemical
HCoV-NL63 Mpro, sequence (P0C6X5 2940-3242 limits assumed): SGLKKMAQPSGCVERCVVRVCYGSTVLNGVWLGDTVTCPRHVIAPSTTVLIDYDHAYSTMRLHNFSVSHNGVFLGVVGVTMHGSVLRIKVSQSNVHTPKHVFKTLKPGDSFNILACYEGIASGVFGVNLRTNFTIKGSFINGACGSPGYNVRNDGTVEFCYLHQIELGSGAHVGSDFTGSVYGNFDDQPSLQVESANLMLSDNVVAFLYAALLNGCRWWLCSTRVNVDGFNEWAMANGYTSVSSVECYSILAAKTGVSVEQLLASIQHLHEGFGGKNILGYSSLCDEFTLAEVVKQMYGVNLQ
Procedure, shortened: as §1

HCoV-OC43 Mpro = HCoV-OC43 Mpro (Human coronavirus OC43, UniProt P0C6X6); test: HCoV-OC43 Mpro enzymatic inhibition assay (fluorescence); type: biochemical
HCoV-OC43 Mpro, sequence (P0C6X6 3247-3549 limits assumed): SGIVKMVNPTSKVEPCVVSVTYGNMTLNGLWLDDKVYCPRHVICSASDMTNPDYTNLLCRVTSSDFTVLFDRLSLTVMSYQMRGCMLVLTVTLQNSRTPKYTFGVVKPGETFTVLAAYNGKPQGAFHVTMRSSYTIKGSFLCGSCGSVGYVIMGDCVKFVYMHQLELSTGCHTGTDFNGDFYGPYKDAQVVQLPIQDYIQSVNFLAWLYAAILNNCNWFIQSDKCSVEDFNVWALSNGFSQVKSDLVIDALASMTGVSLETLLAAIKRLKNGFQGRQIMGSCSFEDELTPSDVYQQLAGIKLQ
Procedure, shortened: as §1

SARS-CoV-1 Mpro = SARS-CoV-1 Mpro (Severe acute respiratory syndrome coronavirus, UniProt P0C6X7); test: biochemical
[1] = mean, 25 nM protein, 25 μM substrate, 30 min pre-incubation, 60 min at 30° C., read-out: Mpro_SARS-CoV-2 mean IC50

Row | SMILES | IC50 (SARS-CoV-2 Mpro) [nM] | IC50 (HCoV-229E Mpro) [nM] | IC50 (HCoV-HKU1 Mpro) [nM] | IC50 (MERS Mpro) [nM] | IC50 (HCoV-NL63 Mpro) [nM] | IC50 (HCoV-OC43 Mpro) [nM] | IC50 (SARS-CoV-1 Mpro) [nM] | IC50 (SARS-CoV-2 Mpro; [1]) [nM]
1 | O=C[C@H](C[C@@H]1CCNC1=O)NC(=O)[C@@H]1C[C@@H](C2CCCCC2)CN1C(=O)c1cc2c(F)cccc2[nH]1 [Compound 38, (2S,4S)-4-Cyclohexyl-1-(4-fluoro-1H-indole-2-carbonyl)-N—((S)-1-oxo-3-((S)-2-oxopyrrolidin-3-yl)propan-2-yl)pyrrolidine-2-carboxamide] | 21 | 41.6 | 16 | 516 | 100 | 46 | 97 | 
2 | CC(C)c1ccc(F)c2[nH]c(C(=O)N3C[C@H]4[C@@H]([C@H]3C(=O)N[C@H](C=O)C[C@@H]3CCNC3=O)C4(C)C)cc12 [Compound 39, (1R,2S,5S)-3-(7-fluoro-4-isopropyl-1H-indole-2-carbonyl)-6,6-dimethyl-N—((S)-1-oxo-3-((S)-2-oxopyrrolidin-3-yl)propan-2-yl)-3-azabicyclo[3.1.0]hexane-2-carboxamide] | 21.6 | 26.4 | 16 | 208 | 40 | 35.1 | 30 | 
3 | CC1(C)[C@@H]2[C@@H](C(=O)N[C@H](C=O)C[C@@H]3CCNC3=O)N(C(=O)Cc3ccc4c(c3)CCCC4)C[C@@H]21 [Compound 40, (1R,2S,5S)-6,6-Dimethyl-N—((S)-1-oxo-3-((S)-2-oxopyrrolidin-3-yl)propan-2-yl)-3-(2-(5,6,7,8-tetrahydronaphthalen-2-yl)acetyl)-3-azabicyclo[3.1.0]hexane-2-carboxamide] | 21.7 | 40.1 | 20.4 | 237 | 88.6 | 45.7 | 35.3 | 
4 | CC1(C)[C@@H]2[C@@H](C(=O)N[C@H](C=O)C[C@@H]3CCNC3=O)N(C(=O)c3cc4c(Cl)cccc4[nH]3)C[C@@H]21 [Compound 43, (1R,2S,5S)-3-(4-Chloro-1H-indole-2-carbonyl)-6,6-dimethyl-N—((S)-1-oxo-3-((S)-2-oxopyrrolidin-3-yl)propan-2-yl)-3-azabicyclo[3.1.0]hexane-2-carboxamide] | 22.1 | 39.3 | 18 | 236 | 47.5 | 45.4 | 25.8 | 
5 | O=C[C@H](C[C@@H]1CCNC1=O)NC(=O)[C@@H]1CC2(CC2)CN1C(=O)c1cc2ccccc2[nH]1 [Compound 47, (S)-5-(1H-Indole-2-carbonyl)-N—((S)-1-oxo-3-((S)-2-oxopyrrolidin-3-yl)propan-2-yl)-5-azaspiro[2.4]heptane-6-carboxamide] |  | 47.8 | 16.8 | 139 | 48 | 64 | 43 | 22.8
6 | CC(C)(C(=O)N1C[C@H]2[C@@H]([C@H]1C(=O)N[C@H](C=O)C[C@@H]1CCNC1=O)C2(C)C)c1ccccc1 [Compound 48, (1R,2S,5S)-6,6-dimethyl-3-(2-methyl-2-phenylpropanoyl)-N—((S)-1-oxo-3-((S)-2-oxopyrrolidin-3-yl)propan-2-yl)-3-azabicyclo[3.1.0]hexane-2-carboxamide] |  | 86.9 | 73.4 | 484 | 376 | 164 | 53.6 | 22.9
7 | CC1(C)[C@@H]2[C@@H](C(=O)N[C@H](C=O)C[C@@H]3CCNC3=O)N(C(=O)c3cc4c(F)ccc(Cl)c4[nH]3)C[C@@H]21 [Compound 49, (1R,2S,5S)-3-(7-chloro-4-fluoro-1H-indole-2-carbonyl)-6,6-dimethyl-N—((S)-1-oxo-3-((S)-2-oxopyrrolidin-3-yl)propan-2-yl)-3-azabicyclo[3.1.0]hexane-2-carboxamide] | 23 | 31.5 | 23.4 | 202 | 57.6 | 37 | 29.4 | 
8 | CC1(C)C[C@@H](C(=O)N[C@H](C=O)C[C@@H]2CCNC2=O)N(C(=O)c2cc3c(F)cccc3[nH]2)C1 [Compound 51, (S)-1-(4-Fluoro-1H-indole-2-carbonyl)-4,4-dimethyl-N—((S)-1-oxo-3-((S)-2-oxopyrrolidin-3-yl)propan-2-yl)pyrrolidine-2-carboxamide] | 24.4 | 27.3 | 13 | 192 | 22.2 | 21.9 | 38 | 
9 | CC1CCC(CC(=O)N2C[C@H]3[C@@H]([C@H]2C(=O)N[C@H](C=O)C[C@@H]2CCNC2=O)C3(C)C)CC1 (stereo partly drawn) [Compound 52, (1R,2S,5S)-6,6-dimethyl-3-(2-(4-methylcyclohexyl)acetyl)-N—((S)-1-oxo-3-((S)-2-oxopyrrolidin-3-yl)propan-2-yl)-3-azabicyclo[3.1.0]hexane-2-carboxamide] | 24.6 | 31.4 | 25 | 214 | 61.3 | 52 | 32.6 | 
10 | CC1(C)[C@@H]2[C@@H](C(=O)N[C@H](C=O)C[C@@H]3CCNC3=O)N(C(=O)CC3CCCCC3)C[C@@H]21 [Compound 53, (1R,2S,5S)-3-(2-cyclohexylacetyl)-6,6-dimethyl-N—((S)-1-oxo-3-((S)-2-oxopyrrolidin-3-yl)propan-2-yl)-3-azabicyclo[3.1.0]hexane-2-carboxamide] |  | 29.7 | 25.6 | 326 | 66.5 | 26.3 | 45.7 | 25
11 | CC1(C)[C@@H]2[C@@H](C(=O)N[C@H](C=O)C[C@@H]3CCNC3=O)N(C(=O)CN3CCCCCC3)C[C@@H]21 [Compound 55, (1R,2S,5S)-3-(2-(Azepan-1-yl)acetyl)-6,6-dimethyl-N—((S)-1-oxo-3-((S)-2-oxopyrrolidin-3-yl)propan-2-yl)-3-azabicyclo[3.1.0]hexane-2-carboxamide] | 25.5 | 39.3 | 54.8 | 317 | 70.2 | 81 | 74.6 | 
12 | COc1ccc2cc(C(=O)N3C[C@H]4[C@@H]([C@H]3C(=O)N[C@H](C=O)C[C@@H]3CCNC3=O)C4(C)C)[nH]c2c1 [Compound 56, (1R,2S,5S)-3-(6-Methoxy-1H-indole-2-carbonyl)-6,6-dimethyl-N—((S)-1-oxo-3-((S)-2-oxopyrrolidin-3-yl)propan-2-yl)-3-azabicyclo[3.1.0]hexane-2-carboxamide] | 25.7 | 42.6 | 12.8 | 291 | 59.9 | 59.8 | 64.7 | 
13 | CC1(C)C[C@@H](C(=O)N[C@H](C=O)C[C@@H]2CCNC2=O)N(C(=O)c2cc3cccc(C#N)c3[nH]2)C1 [Compound 58, (S)-1-(7-Cyano-1H-indole-2-carbonyl)-4,4-dimethyl-N—((S)-1-oxo-3-((S)-2-oxopyrrolidin-3-yl)propan-2-yl)pyrrolidine-2-carboxamide] | 25.8 | 28.5 | 19 | 338 | 40.7 | 56.3 | 62.8 | 
14 | CC1(C)[C@@H]2[C@@H](C(=O)N[C@H](C=O)C[C@@H]3CCNC3=O)N(C(=O)c3cc4c(C#N)cccc4[nH]3)C[C@@H]21 [Compound 59, (1R,2S,5S)-3-(4-Cyano-1H-indole-2-carbonyl)-6,6-dimethyl-N—((S)-1-oxo-3-((S)-2-oxopyrrolidin-3-yl)propan-2-yl)-3-azabicyclo[3.1.0]hexane-2-carboxamide] |  | 42.6 | 22.9 | 230 | 64.1 | 57.5 | 83.4 | 26
15 | CC1(C)[C@@H]2[C@@H](C(=O)N[C@H](C=O)C[C@@H]3CCNC3=O)N(C(=O)c3cc4ccccc4[nH]3)C[C@@H]21 [Compound 60, (1R,2S,5S)-3-(1H-Indole-2-carbonyl)-6,6-dimethyl-N—((S)-1-oxo-3-((S)-2-oxopyrrolidin-3-yl)propan-2-yl)-3-azabicyclo[3.1.0]hexane-2-carboxamide] |  | 53.7 | 28.9 | 273 | 54 | 94.9 | 52 | 26
16 | O=C[C@H](C[C@@H]1CCNC1=O)NC(=O)[C@@H]1C[C@@H](C2CCCCC2)CN1C(=O)c1cc2ccccc2[nH]1 [Compound 61, (2S,4S)-4-Cyclohexyl-1-(1H-indole-2-carbonyl)-N—((S)-1-oxo-3-((S)-2-oxopyrrolidin-3-yl)propan-2-yl)pyrrolidine-2-carboxamide] |  | 43.2 | 12.6 | 438 | 200 | 38.7 | 147 | 26
